Data: paper PMC4948680 (European journal of pharmaceutical sciences : official …, 2016)

What was measured:
in vivo = assay: in vivo; set-up: species or system SCID mice; conditions: SCID, mouse, iv, 10 pmol peptide, total radioactivity, %ID/g tissue
Protocol: (§1) The human epidermoid A431 cell line transfected to stably express the CCK2R (A431-CCK2R(+)) or devoid of CCK2R expression (A431-CCK2R(−)) used for tumour induction in this work was a gift from Prof. O. Boerman (Department of Nuclear Medicine, Radboud University Nijmegen Medical Centre, Nijmegen, The Netherlands) and Prof. L. Aloj (Istituto di Biostrutture e Bioimmagini, Consiglio Nazionale delle Ricerche, Naples, Italy) and cells were cultured as previously reported ([Aloj et al., 2004]). Suspensions of freshly harvested A431-CCK2R(±) cells (~150 μL, 1.6 × 10^7/1.4 × 10^7) in normal saline were subcutaneously injected in the flanks of mice.
(§2) Animals were euthanized in groups of four at 1 h, 4 h and 24 h pi; in a separate 4-h group animals received gelofusine (100 μL) together with the radioligand. […] Mice were dissected and samples of blood and tissues of interest as well as tumours were excised, weighted and counted for radioactivity in the gamma counter. Data was calculated as percent injected dose per gram tissue (%ID/g) with the aid of suitable standards of the injected dose and represent mean ± SD. In all above experiments, analysis of the solution used in the biodistribution experiment was conducted prior to and after completion of all animal injections.
(§3) Statistical analysis using the unpaired two-tailed Student’s t-test was performed to compare values between A431-CCK2R(+) and A431-CCK2R(−) tumours, as well as kidney, stomach and A431-CCK2R(+) tumour values between 4 h control and gelofusine-treated animal groups; values P < 0.05 were considered statistically significant (Table 2). The pharmacokinetic profile was determined by fitting an exponential curve through the organ time-activity data according to the least-squares method. The number of exponentials in the fitted curve was analysed according to the Aikake Information Criterion (AICc). All fitting was performed with Graphpad Prism version 5.

A431-CCK2R(±) xenografts = assay: in vivo; set-up: species or system SCID mice; conditions: SCID, mouse, iv, 10 pmol peptide, 4 h
Protocol: as §1, §2, §3

CSCC[C@H](NC(=O)[C@H](Cc1c[nH]c2ccccc12)NC(=O)CNC(=O)[C@H](Cc1ccc(O)cc1)NC(=O)[C@H](C)NC(=O)[C@@H](CCC(=O)O)NC(=O)[C@@H](CCC(=O)O)NC(=O)[C@@H](CCC(=O)O)NC(=O)[C@@H](CCC(=O)O)NC(=O)[C@@H](CCC(=O)O)NC(=O)[C@@H](CCC(=O)O)NC(=O)CN1CCN(CC(=O)O)CCN(CC(=O)O)CCN(CC(=O)O)CC1)C(=O)N[C@@H](CC(=O)O)C(=O)N[C@@H](Cc1ccccc1)C(N)=O [^111In-CP04, ^111In-DOTA-(DGlu)6-Ala-Tyr-Gly-Trp-Met-Asp-Phe-NH2, metal not drawn]
tissue uptake at 1 h (in vivo; Blood): 0.55 ± 0.17 %ID/g
tissue uptake at 4 h (in vivo; Blood): 0.02 ± 0.01 %ID/g
tissue uptake at 1 h (in vivo; Femur): 0.96 ± 0.46 %ID/g
tissue uptake at 4 h (in vivo; Femur): 0.3 ± 0.22 %ID/g
tissue uptake at 24 h (in vivo; Femur): 0.24 ± 0.09 %ID/g
tissue uptake at 1 h (in vivo; Heart): 0.24 ± 0.08 %ID/g
tissue uptake at 4 h (in vivo; Heart): 0.02 ± 0.01 %ID/g
tissue uptake at 24 h (in vivo; Heart): 0.02 %ID/g
tissue uptake at 1 h (in vivo; Intestines): 0.36 ± 0.13 %ID/g
tissue uptake at 4 h (in vivo; Intestines): 0.22 ± 0.08 %ID/g
tissue uptake at 24 h (in vivo; Intestines): 0.1 ± 0.04 %ID/g
tissue uptake at 1 h (in vivo; Kidneys): 5.53 ± 0.78 %ID/g
tissue uptake at 4 h (in vivo; Kidneys): 5.55 ± 0.94 %ID/g
tissue uptake at 24 h (in vivo; Kidneys): 3.29 ± 0.56 %ID/g
tissue uptake at 1 h (in vivo; Liver): 0.38 ± 0.12 %ID/g
tissue uptake at 24 h (in vivo; Liver): 0.01 ± 0.01 %ID/g
tissue uptake at 1 h (in vivo; Lung): 0.47 ± 0.13 %ID/g
tissue uptake at 4 h (in vivo; Lung): 0.04 ± 0.01 %ID/g
tissue uptake at 24 h (in vivo; Lung): 0.03 ± 0.01 %ID/g
tissue uptake at 4 h (in vivo; Muscle): 0.03 ± 0.02 %ID/g
tissue uptake at 24 h (in vivo; Muscle): 0.01 ± 0.01 %ID/g
tissue uptake at 1 h (in vivo; Pancreas): 0.23 ± 0.08 %ID/g
tissue uptake at 4 h (in vivo; Pancreas): 0.06 ± 0.01 %ID/g
tissue uptake at 24 h (in vivo; Pancreas): 0.05 ± 0.01 %ID/g
tissue uptake at 4 h (in vivo; Spleen): 0.04 ± 0.02 %ID/g
tissue uptake at 24 h (in vivo; Spleen): 0.05 ± 0.01 %ID/g
tissue uptake at 1 h (in vivo; Stomach): 2.6 ± 0.48 %ID/g
tissue uptake at 4 h (in vivo; Stomach): 2.09 ± 0.32 %ID/g
tissue uptake at 24 h (in vivo; Stomach): 1.58 ± 0.15 %ID/g
tissue uptake at 1 h (in vivo; Tumour(+) (A431-CCK2R(+))): 12.6 ± 1.73 %ID/g
tissue uptake at 4 h (in vivo; Tumour(+) (A431-CCK2R(+))): 9.24 ± 1.35 %ID/g
tissue uptake at 24 h (in vivo; Tumour(+) (A431-CCK2R(+))): 4.98 ± 0.56 %ID/g
tissue uptake at 1 h (in vivo; Tumour(–) (A431-CCK2R(–))): 1.07 ± 0.29 %ID/g
tissue uptake at 24 h (in vivo; Tumour(–) (A431-CCK2R(–))): 0.1 ± 0.02 %ID/g
%ID/g tissue, Intestines (A431-CCK2R(±) xenografts): 0.29 ± 0.18 %ID/g
%ID/g tissue, Kidneys (A431-CCK2R(±) xenografts): 6.52 %ID/g
%ID/g tissue, Liver (A431-CCK2R(±) xenografts): 0.12 ± 0.02 %ID/g
%ID/g tissue, Stomach (A431-CCK2R(±) xenografts): 1.63 ± 0.20 %ID/g
%ID/g tissue, Tumour(+) (A431-CCK2R(+)) (A431-CCK2R(±) xenografts): 8.49 %ID/g
